# From patent publication US20200138764A1, “METHODS AND DEVICES FOR ACTIVATING ADIPOSE TISSUE” (The Procter & Gamble Company, priority 2018, published 2020)
# Assays:
# fat tissue = experiment: qPCR biomarker analysis of fat tissue, in vivo; set-up: species or system Mice (C57BJ/6); settings: mouse fat tissue, SC injection twice a week over 3 weeks
# Procedure: (§1) Mice (8-10 weeks old males C57BJ/6 strain) were obtained from a commercial vendor Charles River Laboratories. The animal study protocols were approved by the Institutional Animal Care and Use Committee, at the Procter & Gamble Company. Mice were acclimated to the facility for 14 days prior to initiating the study. From arrival, mice were housed in solid-bottom shoebox styled cages within room temperature of 22±2° C. with ad libitum access to water and regular rodent chow diet on a 12 h light/dark cycle. Mice were single housed and offered bedding and various enrichment options. The bedding and nesting material allowed the mice to thermoregulate to their desired level of comfort. Body weights were recorded at the beginning of the study, on each dosing day prior to dosing, and final weights were recorded at the end of the study. Overall food consumption, fecal output, and body appearance were monitored during cage side clinical observations but were not scientifically measured or tracked. During the dosing period, the animals were observed several times per day (for example, before and during injection, immediately to 30-min post injection, a few hours after injection, and end of work day).
# Three groups of animals were treated with mirabegron (i.e. positive control) (n=4), placebo (n=2) and Formula III (n=6) on the left side while the right side received placebo in all three groups. The injection was performed using a 25-27-gauge ½-⅝″ length needle via a subcutaneous (SC) injection near or into the inguinal fat pad region of the lower abdomen. Dosing was done twice a week injections over 3 weeks. Necropsy was done at week 4. Test materials were administered at room temperature and in a neutral pH range. Three days after last dosing animals were euthanized with CO2 inhalation, inguinal fat pads were harvested, and tissues were processed for histology and biomarker analysis.
# The qPCR biomarker analysis was conducted from flash frozen fat tissue from mouse study described above. First, RNA was manually extracted with RNAdvance Tissue kit (Agencourt). RNA was extracted from flash frozen fat tissue according to manufactuer's directions. For example, 5 mm steel beads were placed in the freezer for approximately 15-20 minutes. Next, Qiagen Buffer RLT was cooled to 4° C. for 20 minutes and placed in a 96 well 1.5 mL tube rack for sample transfer. Isopropanol was added to Agencourt wash buffer. 100 mL aliquots of 70% ethanol in water were prepared. The RNA Tissue beads were allowed to warm to 22° C. (˜30 minutes), and then the beads were shaken vigorously and intermittently for at least 15-20 minutes. 1 stainless steel bead was added to a 2 mL round bottom tube stored on dry ice. The tissue sample was then transferred to the 2 mL round bottom tube.
# The tube rack was placed on wet ice. Then, the tubes were transferred from dry ice to the rack in wet ice and 350 μL of cold buffer RLT were added to the tubes. The beads were beaten at 30 Hz for 2 minutes. After bead beating, samples were centrifuged for 2 minutes. The supernatant was transferred into 96 well deep well isolation plate.
# 80 μL of RNATissue beads were combined with 320 μL of isopropanol to create a Bind Buffer. This solution was prepared fresh for each isolation with any unused solution discarded.
# 400 μL of Bind Buffer was added to the to RLT mixture and slowly mixed. The solution was incubated at room temperature for 10 minutes. Special care was taken to avoid the formation of bubbles while tip mixing.
# The mixture was placed on a magnet (96 well plate—Agencourt SPRIPlate) for 6-10 minutes. After the solution became clear, the supernatant was removed from each tube while the tubes remained on the magnet and the solution was discarded.
# The tubes were removed from the magnet and the pellets were washed with 800 μL of the Isopropanol Wash Buffer ten times. […]
# adipocyte = experiment: In vivo browning study in lean mice: Fat % by image analysis of H&E stained tissue; set-up: species or system Mice (C57BJ/6)
# Procedure: as §1
# […] The injection was performed using a 25-27-gauge ½-⅝″ length needle via a subcutaneous (SC) injection near or into the inguinal fat pad region of the lower abdomen. Dosing was done twice a week injections over 3 weeks. Necropsy was done at week 4. […]
# Segments of adipocyte and inter-cellular regions in a stained image were identified by Python […] package. […] The threshold between adipocyte and inter-cellular regions in a converted image was detected by the Otsu filter function of the […]. The detected value was adjusted by multiplying 1.1.
# The ratio of adipocyte in an image was calculated from the pixel number of the segments—Adipocyte Pixel was divided by Total Pixel.
# The significance of the difference in Adipocyte Ratio between treatment and control groups was assessed by the Negative Binomial Generalized Linear Mixed-Effects Model using glmer.nb function of R lme4 package. […]
compound,measurement,setting,value
CC(C)[C@@H]1CC[C@@H](C)C[C@H]1C(=O)NC[C@@H](NC(=O)[C@H](C)N)c1ccccc1 [Formula III],Average Fold vs Placebo: AdipoQ,fat tissue,4.7
same,Average Fold vs Placebo: Adrb3,fat tissue,18.3
same,Average Fold vs Placebo: Cidea,fat tissue,28.0
same,Average Fold vs Placebo: Cox7a1,fat tissue,5.7
same,Average Fold vs Placebo: Cox8b,fat tissue,19.0
same,Average Fold vs Placebo: Dio2,fat tissue,1.8
same,Average Fold vs Placebo: Elovl3,fat tissue,37.5
same,Average Fold vs Placebo: IL6,fat tissue,0.8
same,Average Fold vs Placebo: Ppargc1,fat tissue,3.0
same,Average Fold vs Placebo: Prdm16,fat tissue,3.5
same,Average Fold vs Placebo: Tfap2a,fat tissue,1.2
same,Average Fold vs Placebo: UCP1,fat tissue,73.2
same,Average Fat % (Adipocyte Pixel / Total Pixel),"adipocyte; mice, SC injection, Formula III one side and mirabegron other side, high and middle dosage merged, H&E images",90.81%
same,treatment effect of reducing the adipocyte ratio,"adipocyte; treatment vs control, p-value 0.0278, negative binomial mixed-effects model",statistically significant
